Test results from ChEMBL document CHEMBL1139585, “A 3D-QSAR model for CYP2D6 inhibition in the aryloxypropanolamine series” (Bioorg Med Chem Lett, 2005).

What follows are molecules tested against Cytochrome P450 2D6 (Homo sapiens, UniProt P10635) (assay: Inhibitory activity against recombinant human Cytochrome P450 2D6 (CYP2D6) after incubated for 45 minutes).
Sequence of Cytochrome P450 2D6 (P10635 whole entry): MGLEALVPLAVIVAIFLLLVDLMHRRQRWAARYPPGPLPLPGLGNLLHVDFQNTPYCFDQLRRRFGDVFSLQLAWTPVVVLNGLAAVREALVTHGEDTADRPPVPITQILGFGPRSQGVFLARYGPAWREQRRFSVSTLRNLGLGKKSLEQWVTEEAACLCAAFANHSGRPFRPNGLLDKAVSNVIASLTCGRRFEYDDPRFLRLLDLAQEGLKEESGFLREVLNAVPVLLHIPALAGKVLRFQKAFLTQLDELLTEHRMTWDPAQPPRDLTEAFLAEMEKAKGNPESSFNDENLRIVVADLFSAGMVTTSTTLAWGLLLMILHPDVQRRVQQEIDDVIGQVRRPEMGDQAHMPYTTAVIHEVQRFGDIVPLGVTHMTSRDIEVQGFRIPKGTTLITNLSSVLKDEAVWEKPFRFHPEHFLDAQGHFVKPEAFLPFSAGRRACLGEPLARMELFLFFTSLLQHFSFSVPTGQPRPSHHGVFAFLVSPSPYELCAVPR

Compound	IC50 [µM]
COCCc1ccc(OCC(O)CNC(C)(C)CSc2ccccc2C)cc1 (stereo unspecified)	0.28
C=CCOc1ccc(OCC(O)CNC(C)C)cc1 (stereo unspecified)	21
CC(C)NCC(O)COc1ccc(CCOCC2CC2)cc1 (stereo unspecified) [BETAXOLOL]	66
COc1ccc2c(CC(C)(C)NCC(O)COc3ccccc3C#N)c[nH]c2c1 (stereo unspecified)	0.42
CC(C)(C)NCC(O)COc1ccccc1 (stereo unspecified)	28
CC(C)NC[C@@H](O)COc1ccc(-c2ccccc2)c2ccccc12	21
CC(C)(Cc1c[nH]c2ccc(O)cc12)NCC(O)COc1ccccc1C#N (stereo unspecified)	0.08
CCc1cccc2cc(CC(O)CNC(C)(C)C)oc12 (stereo unspecified)	4.8
CC(C)NCC(O)COc1ccccc1 (stereo unspecified)	18
CC(C)(Cc1c[nH]c2ccccc12)NCC(O)COc1c(C#N)ccc2ccccc12 (stereo unspecified)	0.05
CC(C)N[C@@H](C)C(O)COc1cccc2ccccc12 (stereo partly specified)	3.8
CC(C)(Cc1csc2ccccc12)NCC(O)COc1ccccc1C#N (stereo unspecified)	0.05
COc1ccc2[nH]cc(CC(C)(C)NCC(O)COc3ccccc3C#N)c2c1 (stereo unspecified)	0.05
Cc1ccccc1OCC(O)CNC(C)(C)Cc1cc2ccccc2n1C (stereo unspecified)	0.09
COc1ccc2c(OCC(O)CNC(C)C)cccc2c1 (stereo unspecified)	8.4
CCc1ccccc1OCC(O)CNC(C)(C)Cc1cc2ccccc2[nH]1 (stereo unspecified)	0.12
